Patent US6379652B1, “Oral compositions for reducing mouth odors” (Colgate Palmolive Company, priority 2000, dated 2002)

Tested on: F. nucleatum
Experiment: MIC assay for bactericidal activity (microtiter format)
Format: cell-based
Design: MIC Value: unit not given here
Details: for MIC Value: individual flavors, 1% by weight solution in ethanol, F. nucleatum, lower = more effective; for bactericidal activity against F. nucleatum (in words): summary of Table I
Description: A 1% by weight solution in ethanol of a series of individual essential oil flavors were prepared and evaluated in an MIC assay for bactericidal activity against F. nucleatum. The bacterial strain F. nucleatum is implicated in the occurrence of oral malodor.
The bacterial strains of F. nucleatum were grown […] in thioglycolate broth for 48 hours at 37° C. The optical density at 610 nm was adjusted to between 0.1 to 0.2 prior the MIC determination.
MIC determinations were performed using the microtiter format according to standard procedures (Manual of clinical Microbiology, 1995).
The procedure of Example 1 was repeated except combinations of various flavor compounds were evaluated for antibacterial efficacy via the MIC assay.

In the case of CC12CCC(CC1)C(C)(C)O2 [Eucalyptol], the “MIC Value” is reported as 500.

With CC=Cc1ccc(OC)cc1 [Anethol] the “MIC Value” was 500.

Cc1ccc(C(C)C)c(O)c1 [Thymol] was tested, and the “MIC Value” was 125 and the “bactericidal activity against F. nucleatum (in words)” value (“bactericidal activity” below) was “good bactericidal activity”.

CC(C)[C@@H]1CC[C@@H](C)C[C@H]1O [L-menthol] was tested, and the “MIC Value” was 500.

For O=C/C=C/c1ccccc1 [Cinnamic aldehyde], the “MIC Value” was 125 and the “bactericidal activity” value was “good bactericidal activity”.

C=CCc1ccc(O)c(OC)c1 [Eugenol] was tested, and the “MIC Value” was 250 and the “bactericidal activity” value was “good bactericidal activity”.
